# Read-outs that look alike come from different tables or passages of the source.
# Key:
# [1] = anticonvulsant activity, standard maximal electroshock test (MES); format: in vivo, mice; conditions: Mus musculus, po, read-out: ED50, MES
# Experimental: The anticonvulsant activity of certain compounds of the present invention was determined by a standard maximal electroshock test, that described by L. A. Woodbury and V. D. Davenport, Arch. Int. Pharmacodyn.: 1952, 92, 97.
# [2] = tested on: Plasmodium berghei; conditions: Plasmodium berghei in mice; Rees et al, J. Med. Chem., 1972 15, 859; cited from earlier work
# [3] = cited from earlier work; for toxicity: J. Med. Chem., 1972 15, 859
# [4] = LD50 in rats, p.o.; conditions: rat, in vivo, po, dose for which 50% of the animals survive 10 days after administration
# Experimental: (§1) The LD50's (expressed in mg/kg, p.o.) of 3,5-diamino-6-(2,3-dichlorophenyl)-1,2,4-triazine and 3,5-diamino-6-(2,5-dichlorophenyl)-1,2,4,-triazine were determined in mice and rats. The LD50 described is the dose for which 50% of the animals survive 10 days after administration of the compound.
# [5] = LD50 in mice, p.o.; conditions: mouse, in vivo, po, dose for which 50% of the animals survive 10 days after administration
# Experimental: as §1
# [6] = Rosenberg and Bottiroli, Proc. Soc. Exp. Biol. 1964; cited from earlier work
# [7] = mice, p.o., maximal electroshock, Table 3
# [8] = mice, p.o., maximal electroshock, Table 4 (naphthyl compounds)
smiles,measurement,setting,value
"Nc1nnc(-c2ccccc2Br)c(N)n1 [2-Br NH2, 3,5-diamino-6-(2-bromophenyl)-1,2,4-triazine]",ED50,[1]; [7],8.5 mg/kg
"Cc1ccc2ccccc2c1-c1nnc(N)nc1N [2-Me, 3,5-diamino-6-(2-methyl-1-naphthyl)-1,2,4-triazine]",ED50,[1]; [8],16.5 mg/kg
Nc1nnc(-c2ccc(C(F)(F)F)cc2)c(N)n1 [4-trifluoromethylphenyl],antimalarial activity,[2],still being active against malaria
same,toxicity,[3]; Rees et al,less toxic than the chlorophenyl compounds
"Nc1nnc(-c2ccc(Br)cc2Cl)c(N)n1 [2-Cl, 4-Br NH2, 3,5-diamino-6-(4-bromo-2-chlorophenyl)-1,2,4-triazine]",ED50,[1]; [7],12.8 mg/kg
"Nc1nnc(-c2ccccc2C(F)(F)F)c(N)n1 [2-CF3 NH2, 3,5-diamino-6-(2-trifluoromethylphenyl)-1,2,4-triazine]",ED50,[1]; [7],20 mg/kg
Nc1nnc(-c2ccc(Cl)cc2)c(N)n1 [4-chlorophenyl],antimalarial activity,[2],active against the malaria organism Plasmodium berghei in mice
same,toxicity,[3]; Rees et al,toxic at curative doses
same,therapeutic ratio,"[3]; malaria, Rees et al",low therapeutic ratio
"Nc1nnc(-c2cccc3ccccc23)c(N)n1 [H, 3,5-diamino-6-(1-naphthyl)-1,2,4-triazine]",ED50,[1]; [8],2.9 mg/kg
"Cc1ccccc1-c1nnc(N)nc1N [2-Me NH2, 3,5-diamino-6-(2-methylphenyl)-1,2,4-triazine]",ED50,[1]; [7],15 mg/kg
"Nc1nnc(-c2cc(Cl)ccc2Br)c(N)n1 [2-Br, 5-Cl NH2, 3,5-diamino-6-(2-5-chlorophenyl)-1,2,4-triazine]",ED50,[1]; [7],4.6 mg/kg
"Nc1nnc(-c2cc(Br)ccc2Cl)c(N)n1 [2-Cl, 5-Br NH2, 3,5-diamino-6-(5-bromo-2-chlorophenyl)-1,2,4-triazine]",ED50,[1]; [7],6 mg/kg
"Nc1nnc(-c2cc(Cl)ccc2Cl)c(N)n1 [2,5-Cl2 NH2, 3,5-diamino-6-(2,5-dichlorophenyl)-1,2,4-triazine]",LD50 at 240 h,[4],> 640 mg/kg
same,ED50,[1]; [7],3.3 mg/kg
same,LD50 at 240 h,[5],708 mg/kg
"CC(=O)Nc1nc(N)nnc1-c1cccc(Cl)c1Cl [2,3-Cl2 NHCOCH3, 5-acetamido-3-amino-6-(2,3-dichlorophenyl)-1,2,4-triazine]",ED50,[1]; [7],5 mg/kg
CCN(CCO)CCCC(C)Nc1ccnc2cc(Cl)ccc12 (stereo not drawn) [hydroxychloroquine],anticonvulsant activity profile,[6],favourable activity profile
"Nc1nnc(-c2c(F)cccc2Cl)c(N)n1 [2-Cl, 6-F NH2, 3,5-diamino-6-(2-chloro-6-fluorophenyl)-1,2,4-triazine]",ED50,[1]; [7],12.2 mg/kg
"CN(C)C=Nc1nc(N)nnc1-c1cccc(Cl)c1Cl.O=C(O)C(=O)O [2,3-Cl2 NCHNMe2, 3-amino-6-(2,3-dichlorophenyl)-5-dimethylaminomethyleneamino-1,2,4-triazine oxalate]",ED50,[1]; [7],5 mg/kg
"Nc1nnc(-c2cc(Cl)cc(Cl)c2Cl)c(N)n1 [2,3,5-Cl3 NH2, 3,5-diamino-6-(2,3,5-trichlorophenyl)-1,2,4-triazine]",ED50,[1]; [7],0.65 mg/kg
"Nc1nnc(-c2ccc(Cl)cc2Cl)c(N)n1 [2,4-dichlorophenyl]",antimalarial activity,[2],only slight antimalarial activity
"Nc1nnc(-c2ccc(Cl)c(Cl)c2)c(N)n1 [3,4-dichlorophenyl]",antimalarial activity,[2],active against the malaria organism Plasmodium berghei in mice
same,toxicity,[3]; Rees et al,toxic at curative doses
same,therapeutic ratio,"[3]; mouse, in vivo",low therapeutic ratio
"Nc1nnc(-c2ccccc2I)c(N)n1 [2-I NH2, 3,5-diamino-6-(2-iodophenyl)-1,2,4-triazine]",ED50,[1]; [7],11.8 mg/kg
"Nc1nnc(-c2cccc(Cl)c2Cl)c(N)n1 [2,3-Cl2 NH2, 3,5-diamino-6-(2,3-dichlorophenyl)-1,2,4-triazine]",LD50 at 240 h,[4],> 640 mg/kg
same,ED50,[1],2.4 mg/kg
same,LD50 at 240 h,[5],250 mg/kg
"Nc1nnc(-c2cc(Cl)cc3ccccc23)c(N)n1 [3-Cl, 3,5-diamino-6-(3-chloro-1-naphthyl)-1,2,4-triazine]",ED50,[1]; [8],6.5 mg/kg

# — patent US4602017A, “Substituted aromatic compounds” (priority 1979, dated 1986)
